Source: US20230346884A1, “Molecular Targets for Modulation of Dissociative and Associative States” (The Board of Trustees of the Leland Stanford Junior …, priority 2020, published 2023)
Entries after “also recorded” stand apart in the source; their conditions may differ.

What was measured:
[1] = system: retrosplenial cortex (RSP) neurons; experiment: Two-photon imaging of RSP; format: in vivo, mouse
Description: Mice were anesthetized with isoflurane and the skull above retrosplenial cortex was removed and replaced with a 7 mm circular glass coverslip. For layer 1 experiments, ThylGcaMP6s mice were used. For layer 2/3 experiments, Cux2-CreER;Ai148 mice were used (tamoxifen dissolved in corn oil was injected intraperitoneally at 0.1 mg/g at least 2 weeks prior to imaging). For layer 5 experiments, Rbp4-Cre mice were injected locally in retrosplenial with 800 nL AAVdj-Ef1a-DIO-GCaMP6f (titer 5E12) at stereotactic coordinates (−3AP, 0.5 ML, −0.6DV). Mice were given >=1 week to recover before imaging. Awake, head-fixed imaging was performed on a standard two photon microscope (NeuroLabWare, Los Angeles, CA). A 16×0.8 NA Nikon objective was immersed in clear ultrasound gel for imaging (Aquasonic, Parker Laboratories); frame rate of 30 Hz. Although we observed oscillations in RSP with 50 mg/kg, we were concerned that 50 mg/kg may be too low a dose to sensitively detect a potentially weaker signal in visual cortex or layer 2/3, and so we used 80 mg/kg in these experiments.
Two-photon tiff stack videos were registered to the average image using the TurboReg ImageJ plug-in using rigid body transformations. […] Contaminating neuropil signal was estimated from an annulus surrounding each soma mask and removed using the function F(t)=Fsoma(t)−0.3*Fneuropil(t), where Fsoma(t) is the somatic DF/F and Fneuropil(t) is the DF/F from an annulus 4 pixels wide surrounding each soma mask. The resulting traces were detrended and z-scored. The full frame fluorescence (used for quantifying layer 1 neuropil oscillations) was computed by summing all of the pixels in each frame on each time point, and then computing DF/F the same way, with no neuropil subtraction step.
(§1) Each trace (corresponding to either a fiber photometry signal, a cellular two-photon signal, a widefield regional centroid, a widefield pixel, an sEEG trace, or a smoothed spike rate Neuropixels trace) was z-scored, and the power spectral density (PSD) was then estimated using Welch's method (pwelch( ) in Matlab), with a window size of 10*fs (15*fs for human sEEG) where fs is the sampling rate of the signal. The average band power within a specified band (i.e. 1-3 Hz) was then computed by integrating the PSD estimate (bandpower in Matlab). For displaying the traces of individual cells, traces were each zscored by subtracting the mean value of the trace (across the whole recorded time window) and dividing by the standard deviation of the trace. Unless otherwise indicated, the PSD was computed across the time window from minutes 10 to 11 post-injection.

[2] = system: retrosplenial cortex (RSP); experiment: Fiber photometry in RSP (GCaMP6m); format: in vivo, mouse
From the text: A 405 nm and 470 nm LED illumination (Thorlabs) was combined (425 nm longpass, Thorlabs DMLP425) and coupled into a fiber optic patch cord (400 μm diameter, 0.48 NA, Doric Lenses) using a longpass dichroic (505 nm, Thorlabs DMLP505) and a fixed-focused coupler/collimator with a standard FC connector (F240FC-A, NA 0.51, f =7.9 mm)^47,48. Each illumination channel was frequency modulated using the sync output from a lock-in amplifier (SR810 DSP, Stanford Research Systems). GCaMP fluorescence was collected through the same patchcord and delivered through a bandpass emission filter (Semrock, FF01-520/35) onto a NewFocus 2151 femtowatt silicon photoreceiver (Newport, DC Low mode). The signal from the photoreceiver was split into each lock-in amplifier, and the filtered outputs were digitized at 5 kHz using a NIDAQ (National Instruments PCIe-6353) and saved using a MATLAB (MathWorks) acquisition script.
Analysis was performed using custom MATLAB (MathWorks) scripts. Widefield imaging videos were registered to a 2D top-projection atlas generated from the annotated Allen Brain Atlas volume, version CCFv2, in MATLAB (MathWorks), using an affine transformation computed from four manually selected control points. Each video was DF/F normalized, using the median for each pixel over the entire time series as F. The 410 nm channel was then temporally smoothed using a moving average (width=400 ms). The smoothed 410 nm DF/F signal for each pixel was regressed onto the 488 nm DF/F signal for the corresponding pixel, and the regression coefficients were used to scale the 410 nm channel to the 488 nm channel. This scaled 410 nm DF/F signal was then subtracted from the 488 nm DF/F signal to produce a normalized signal for each pixel. For quantification, activity traces were extracted from points centered in five cortical regions (visual, somatosensory, parietal, motor, retrosplenial) on the left hemisphere of the brain. The video data was Gaussian smoothed spatially (radius=2 pixels). Similarly, for fiber photometry recordings, the 410 nm signal was regressed onto the 488 nm signal, the 410 nm signal was scaled by the regression coefficients, and then subtracted from the 488 nm signal.
as §1
Stereotaxic Surgery: Adult male and female HCN1^f/f, NR1^f/f, or wildtype C57/B16 were injected bilaterally in two retrosplenial locations (AP −3.1 and −3.4, ML+/−0.5, DV −0.5) with 1 uL of AAV8-Ef1a-mCherry-IRES-Cre (titer 5E11) and AAVdj-Ef1a-DIO-GCaMP6m (titer 1E13). A 400-micron optical fiber was implanted over one injection location. At least four weeks were allowed for viral expression and gene disruption before photometry recording. For gene knockout behavior experiments, injections of AAVdj-Ef1a-Cre were made at (AP −2.7, −3.1 and −3.5, ML+/−0.5, DV −1.35 and −0.70). For gene knockout control behavioral experiments, two retrosplenial injections of AAVdj-Efla-Cre were made in experimental animals.

[3] = system: mice; experiment: Resident-intruder social interaction assay; format: in vivo, mouse
Description: Social Interaction Assay: Resident-intruder social interaction was recorded for two minutes. Interactions were defined as close physical proximity behaviors, including sniffing, touching, and following. […] Illumination began 30 seconds before the same-sex intruder mouse was introduced.

[4] = system: mice; experiment: Observation for seizure-like signs after ketamine; format: in vivo, mouse; conditions: dissociative doses of ketamine
From the text: One characteristic of seizures is increased synchrony. While the ketamine-induced rhythm involved increased synchrony in neuronal firing, the initiation, spread, maintenance/termination, and behavior were distinguishable from typical seizures.

[5] = system: mice; experiment: Hot plate test
Description: Hot Plate Test: Mice were placed on the hot plate (Bioseb), which was set to 55° C. and surrounded by a clear circular perimeter. Mouse activity was recorded using two cameras from different angles. The experiment ended when the mouse jumped to escape or 90 seconds had elapsed. Care was taken to clean and dry the hot plate apparatus between animals. For optogenetic experiments, mice were connected to patch cords and then returned to a holding cage. Illumination began 30 seconds before mice were placed on the hot plate.

[6] = system: mouse; experiment: Ketamine dose-effect relationship in mouse
Description: (2 mg/kg), lidocaine (topical), LSD ((+)-Lysergic acid diethylamide (+)-tartrate (2:1), 0.3 mg/kg), and diazepam (2 mg/kg). […] For anti-depressant effects, human doses are typically 0.3-1 mg/kg, and in mouse 3-10 mg/kg.

[7] = controls (wild-type), 50 mg/kg ketamine

CNC1(c2ccccc2Cl)CCCCC1=O (centres unmarked) [ketamine]
Oscillation / population synchrony in layer 2/3 RSP neurons ([1]; Cux2-CreER mice, ketamine): neither oscillating neurons nor population synchrony were observed
Oscillation / population synchrony in layer 5 RSP neurons ([1]; Rbp4-Cre mice, ketamine): exhibited synchronous activity
Hedge's g effect-size, mean 1-3 Hz power before/after ketamine, layer 2/3 RSP cells (FIG. 1I) ([1]; n=5 mice): −0.46
Hedge's g effect-size, mean 1-3 Hz power before/after ketamine, layer 5 RSP cells (FIG. 1I) ([1]; n=5 mice): 3.16
Oscillation in superficial neuropil, RSP vs neighboring visual cortex ([1]; two-photon, cranial window, 80 mg/kg): observed the oscillation in RSP but not neighboring visual cortex
Glass's A, power 25 mg/kg vs 13 mg/kg (FIG. 3C) ([2]; 10 min after injection): 3.2
Hedge's g effect-size, oscillation-power GRIN1-pre/GRIN1-post (FIG. 4E) ([2]; GRIN1 knockout, ketamine): 2.03
Hedge's g effect-size, oscillation-power HCN1-pre/HCN1-post (FIG. 4E) ([2]; HCN1 knockout, ketamine): 1.02
1-3 Hz RSP oscillation ([2]; ketamine 25 mg/kg, widefield imaging and fiber photometry): revealed a 1-3 Hz oscillation at 25 mg/kg
Ketamine-induced oscillations ([2]; local RSP GRIN1 (NMDAR) knockout mice, four weeks after virus): significantly diminished; also recorded: partially attenuated
Ketamine-induced oscillations ([2]; local RSP HCN1 knockout mice, four weeks after virus): significantly diminished
Ketamine-induced oscillations ([2]; wild-type mice): preserved in wild-type
Hedge's g effect-size, oscillation-power WT-pre/WT-post (FIG. 4E) ([2]; wild-type, ketamine): 3.22
Resident-intruder social interactions vs. wild-type ([3]; both channel-knockouts (HCN1, GRIN1), ketamine): modestly-recovered
Resident-intruder interactions ([3]; ketamine >=25 mg/kg): suppressed
Seizure-like signs [4]: no rigidity, convulsive movements, absence-like states, or salivation/rearing/falling were observed
Affective behavior ([5]; GRIN1 knockouts, ketamine): without recovery of affective behavior
Affective paw-licking ([5]; HCN1-KO mice with RSP Cre-virus, 50 mg/kg ketamine): strikingly restored affective paw-licking
Affective paw-licking [5, 7]: abolished affective paw-licking
Reflexive paw-flicks [5, 7]: preserving reflexive paw-flicks
Affective behaviors ([5]; ketamine 13 mg/kg): consistently preserved at 13 mg/kg
Affective behaviors ([5]; ketamine 25 mg/kg): selectively abolished at 25 mg/kg
Affective/emotional defensive behavior (paw-lick) ([5]; ketamine at 25 and 50 mg/kg): abolished affective/emotional
Motivational defensive behavior (jump-to-escape) ([5]; ketamine at 25 and 50 mg/kg): abolished
Reflexive responses (paw-flick) ([5]; ketamine dose series): did not reduce reflexive responses
Lowest tested dose causing the oscillation and behavioral effects [6]: 25 mg/kg
